# The OPERA property sets (Mansouri et al. 2018)
Compound,log10 vapour pressure (mmHg),melting point [°C],boiling point [°C],ready biodegradability,log10 Koc (L/kg),log10 Henry constant (atm·m³/mol),log10 Koa
Brc1cc2c(cc1Br)Oc1cc(Br)c(Br)cc1O2,-8.32,334,,,,,
CCCCC(C(C)=O)C(=O)OCC (stereo unspecified),,,222,,,,
CCCOC(=O)c1ccc(O)cc1,,97,,,,,
OCc1ccco1,-0.215,-14.6,171,readily biodegradable,,,
C1CS1,2.4,,55.5,,,,
CC(C)N(C)C,,,66,,,,
CC(=O)Oc1ccc2c3c1O[C@H]1[C@@H](OC(C)=O)C=C[C@H]4[C@@H](C2)N(C)CC[C@@]341,-9.12,173,,,,,
CNC(=O)Oc1cccc(N=CN(C)C)c1,,,,,2.44,,
CC1=C(C(=O)Nc2ccccc2)CCCO1,,110,,,,,
N[C@@H](CC(=O)O)C(=O)O (racemic),,272,,,,,
CCOc1ccc2c3c1O[C@H]1[C@@H](O)C=C[C@H]4[C@@H](C2)N(C)CC[C@@]341,,200,,,,,
CC(=O)c1cc2c(cc1C)C(C)(C)C(C)CC2(C)C (stereo unspecified),,54.5,,,,,
N#Cc1ccc(Br)cc1,,,236,,,,
Clc1[nH]nc2ccccc12,,149,,,,,
Cc1cc(Cl)c(C)cc1Cl,,71,222,,,,
O=C(OCC(F)(F)F)C(F)(F)F,,,55,,,,
O=C1CCCC1,1.06,-51.3,130,,,-5,3.67
CCCCN(CCCC)C(=O)COC(=O)c1ccccc1,,25,,,,,
NNc1ccccc1,-1.58,19.6,244,,,,
Cc1ccc(CO)c(C)c1,,22,232,,,,
CCCCCCCC/C=C\CCCCCCCCCCCC(=O)O,,33.5,,,,,
c1ccc(N2CN(c3ccccc3)CN(c3ccccc3)C2)cc1,,144,,,,,

Compound,log10 vapour pressure (mmHg),melting point [°C],boiling point [°C],ready biodegradability,log10 Koc (L/kg),log10 Henry constant (atm·m³/mol),log10 Koa
C=C[C@](C)(O)CC[C@@H]1[C@@]2(C)CCCC(C)(C)[C@@H]2CC[C@@]1(C)O,,97,,,,,
N#Cc1c(F)c(F)c(C#N)c(F)c1F,,198,,,,,
ClC1=C(Cl)C2(Cl)C(CBr)CC1(Cl)C2(Cl)Cl (stereo unspecified),,77,,,,,
CC(=O)NS(=O)(=O)c1ccc(N)cc1,,183,,,,,
C=CCC1(C2C=CCCC2)C(=O)NC(=S)NC1=O (stereo unspecified),,149,,,,,
FC(Cl)(Cl)Cl,2.9,-111,23.7,,,-1.01,
N#CCC=CCC#N,-2.16,76,,,,,
COC(=O)c1ccccc1CS(=O)(=O)NC(=O)Nc1nc(OC)cc(OC)n1,-13.7,187,,,2.5,,
CCC(O)c1ccccc1 (stereo unspecified),,,219,,,,
Cc1ccc(C)c(C)n1,,,172,,,,
Cc1cccc(C(=O)N(NC(=O)c2ccccc2)C(C)(C)C)c1,,211,,,,,
O=C(O)c1cc[n+]([O-])cc1,,270,,,,,
CCCC(C)Cl (stereo unspecified),1.69,-80,99,,,,
CCCCC(CC)COC(=O)Cl (stereo unspecified),-0.775,,207,,,,
OCCC1CCCC1,,,183,,,,
CNC[C@H](O)c1ccc(O)c(O)c1,,212,,,,,
CCOc1c(N2CCOCC2)cnn(C)c1=O,,90,,,,,
N#CCON=C(C#N)c1ccccc1,-0.457,55,,,,,
CCCCS(=O)(=O)O,,-15.2,,,,,
C(=C(c1ccccc1)c1ccccc1)c1ccccc1,,72.5,,,,,
Clc1cccc(-c2cccc(Cl)c2Cl)c1Cl,-4.13,,,,,-4,
CC=C(C)C(C)C(C)=O (stereo unspecified),,,154,,,,

Compound,log10 vapour pressure (mmHg),melting point [°C],boiling point [°C],ready biodegradability,log10 Koc (L/kg),log10 Henry constant (atm·m³/mol),log10 Koa
CCC(=O)O[C@](Cc1ccccc1)(c1ccccc1)[C@H](C)CN(C)C,,75.5,,,,,
C#CC(C)(C)O,1.2,3,104,,,-5.41,
CC(=O)c1cccc(N)c1,,98.5,290,,,,
NC(=O)c1cccc([N+](=O)[O-])c1,,143,312,,1.95,,
CCCCCCCCC#CCCCCCCCC(=O)O,,48,,,,,
C/C=C(\C)C(=O)O[C@H]1C[C@@H](OC(C)=O)[C@@]2(C(=O)OC)CO[C@H]3[C@@H](O)[C@@](C)([C@]45O[C@@]4(C)[C@H]4C[C@@H]5O[C@@H]5OC=C[C@@]54O)[C@H]4[C@]1(CO[C@]4(O)C(=O)OC)[C@@H]32,,156,,,,,
Nc1ccc(Br)cc1Br,,79.5,,,,,
CCOC(=O)C1(c2ccccc2)CCN(C)CC1,,270,,,,,
ClC1C(Br)C(Br)C(Br)C(Br)C1Br (stereo unspecified),,,,not readily biodegradable,,,
CCCCCCCCCCCCCO,-3.36,32.5,,readily biodegradable,,,
CC(C)(C)C(=O)O,-0.301,35,164,not readily biodegradable,,-5.56,
COc1cc(C)cc(OC)c1,,,244,,,,
Cc1ccc(Br)cc1C,,-0.2,214,,,,
CC(=O)OCC(=O)[C@@]1(O)[C@H](OC(C)=O)C[C@H]2[C@@H]3CCC4=CC(=O)C=C[C@]4(C)[C@@]3(F)[C@@H](O)C[C@@]21C,,235,,,,,
Clc1ccc(/N=N/c2ccccc2)cc1,-5.7,88,,,,,
c1ccc(COCc2ccccc2)cc1,-2.99,3.6,298,not readily biodegradable,,,
C=CC[C@]1(O)CC[C@H]2[C@@H]3CCC4=CC(=O)CCC4=C3C=C[C@@]21C,,120,,,,,
COc1ccccc1Cl,-0.623,-26.8,198,,,,
CCN(CC)c1c([N+](=O)[O-])cc(C(F)(F)F)c(N)c1[N+](=O)[O-],-5.44,98,,,3.63,,
NCc1cccc(CN)c1,,,247,not readily biodegradable,,,
